Test [1] has as its system Enterobacter sakazakii. Particulars: 16 μM ferrous sulfate, 12 h, FIG. 8B. The method, then: (§1) Ferrous sulfate aqueous solutions were configured to a final concentration of 16 μM; and prepare 10^8 CFU/mL of Escherichia coli, Listeria monocytogenes, Vibrio Parahemolyticus, Enterobacter sakazakii, Staphylococcus aureus and MRSA. A 96-well plate assay was performed to determine the susceptibility of six pathogenic bacteria to ferrous sulfate, and after 12 h treatment, the total number of bacterial colonies was determined in a drop-plate assay to further investigate the effect of ferrous ions on their inhibition.

The subject of test [2] is Escherichia coli. Particulars: 16 μM ferrous sulfate, 12 h, FIG. 8B. The method, then: as §1
The subject of test [3] is Listeria monocytogenes. To be noted: 16 μM ferrous sulfate, 12 h, FIG. 8B. The method, then:
as §1

Test [4] has as its system MRSA. Particulars: 16 μM ferrous sulfate, 12 h, 10^8 CFU/mL. The method, then: as §1
Test [5] deals with Staphylococcus aureus. To be noted: 16 μM ferrous sulfate, 12 h, 10^8 CFU/mL. The method, then: as §1
The test system of test [6] is Vibrio Parahemolyticus. To be noted: 16 μM ferrous sulfate, 12 h, FIG. 8B. The method, then: as §1
The subject of test [7] is S. aureus. The method, then: Ferrous sulfate aqueous solutions were configured to final concentrations of 1, 4, 16, and 64 μM, respectively, and ampicillin and vancomycin as positive controls were configured to 100 μg/mL, as well as ultrapure water without ferrous sulfate was set as a blank control group. Then 10^8 CFU/mL of S. aureus and MRSA were prepared. The cell suspensions were added with FeSO4 at final concentrations of 0, 1, 4, 16, 64 μM, respectively, and incubated at 37° C. 200 rpm for 12 h. […] After incubation, S. aureus cells were collected by centrifugation, suspended in 1 mL of normal saline solution, and subjected to 10-fold serial dilutions. Finally, 6 dilutions of each condition were plated on TSB agar, and the colony form units (CFU) were enumerated after incubation at 37° C. overnight.

For test [8], the system named is Staphylococcus aureus. Particulars: 100 μM, 12 h treatment, approximately 10^8 CFU/mL.
Experimental: To verify the antibacterial activity of ferrous ions against Staphylococcus aureus, the following tests were done: • 1. […] 96-well plate method was used to test the drug sensitivity of 9 ferrous salts against Staphylococcus aureus (approximately 10^8 CFU/mL). After 12 h treatment, the total number of bacterial colonies was determined followed by drop plate method to further investigate the antibacterial effect of iron ions on Staphylococcus aureus.

The values that follow come from patent publication US11957712B2, “Application of a hydrogel in the preparation of products for the treatment of bacterial infections” (Shaanxi University of Science & Technology, priority 2022, dated 2024).

As for ferrous sulfate, the bactericidal effect result in test [1], in test [2], in test [3] and in test [6] was “strong bactericidal effect” each time. For the same substance, the “survival of MRSA” value in test [4] is listed as “less than 0.01%”. In test [5], the “survival rate of S. aureus” value was “less than 0.001%”. Further, in test [7] (37° C., 200 rpm, 12 h, 10^8 CFU/mL), the “MBC (lowest concentration required to kill 99.99% cells of S. aureus)” value was found to be 16 µM. Also, the bactericidal rate in test [7] (at 16 μM (MBC)) is reported as 99.99%. Moreover, the “inhibition of the growth of S. aureus” value in test [8] is reported as ~100%.
